Here are results for two molecules from patent US7238781B2, “Plant defensin polynucleotides and methods of use thereof” (E. I. DuPont de Nemours and Company, priority 1999, dated 2007).

Holding throughout (format): cell-based
One assay concerns Sclerotinia sclerotiorum. Nature of the assay: In vitro 96 well microtiter plate assay, inhibition of hyphal growth. To be noted: 24 hours at 22° C., 2 replicates. How it is done:
An in vitro assay was also performed in a 96 well microtiter plate to determine the activity of Pps-AMP1 mature peptide against Sclerotinia sclerotiorum. Test inoculum was started by inoculating ½ strength potato dextrose broth (PDB) liquid with a sterile loop of hyphae from a Sclerotinia culture propagated on ⅛ strength potato dextrose agar (PDA) plate. Liquid inoculum was held at room temperature (22° C.), without shaking, in the dark for 4 days, to allow sufficient growth of hyphae. The resulting suspension was macerated using a polytron tissue grinder. The sample was then diluted to the point of invisibility to the naked eye (observation under microscopy at 40× indicated the presence of hyphal fragments). […] […] Sclerotinia hyphae only, or ½ strength PDB only, were included as negative controls.

Assay [1] has as its system Colletotrichum graminaria. The assay is described as follows: Bioactivity of Pps-AMP1 mature peptide against fungal pathogens (spore suspension in 1/2 strength PDB). To be noted: concentration at which 90% of fungal growth is inhibited, 48 hour incubation at 28° C. How it is done: (§1) The purified refolded and lyophilized Pps-AMP1 mature peptide was resuspended in dH2O to a final concentration of about 4 μg/μl. 12 μg of purified Pps-AMP1 mature peptide was added to 200 μl of ½ strength potato dextrose broth (PDB) containing a spore suspension of either Fusarium verticilloides, Colletotrichum graminaria, or Neurospora crassa containing 2500 spores/ml. […] A 0.5× dilution series for Pps-AMP1 mature peptide from 10 μM through to about 0.005 μM was prepared by removing 100 μl of the 10 μM stock and adding it to 100 μl of spore suspension (2500 spores/ml), mixing thoroughly to achieve a 5 μM Pps-AMP1 mature peptide concentration, transferring 100 μl of the 5 μM suspension to a fresh 100 μl spore suspension etc., until about 0.005 μM was reached. Two replicates per pathogen were performed. […] Inhibition of fungal growth was defined as little to no spore germination without detectable hyphae growth. The bioactivity of Pps-AMP1 mature peptide against these fungal pathogens is shown below. The IC90 concentration represents that concentration at which 90% of fungal growth is inhibited.

Another assay deals with Fusarium verticilloides. Described as above. Particulars: concentration at which 90% of fungal growth is inhibited, 48 hour incubation at 28° C. On the procedure:
as §1

In another assay the test system is Neurospora crassa. The description is as above. Particulars: concentration at which 90% of fungal growth is inhibited, 48 hour incubation at 28° C. How it is done:
as §1

For `COC(=O)Nc1nc2ccccc2[nH]1` [MBC standard, methyl 2-benzimidazolecarbamate, reference compound], the “inhibition of fungal growth” value in the assay with Sclerotinia sclerotiorum (0.023 μM) is 0.023 μM - moderate inhibition of fungal growth; with Sclerotinia sclerotiorum (17–0.07 μM), 17–0.07 μM - total inhibition of fungal growth.
By IC90 is commonly meant the point of the concentration-response curve where the effect stands at 90%. Read a low IC90 as an effect from little substance. On to “Pps-AMP1 mature peptide: mature peptide of Picramnia pentandra defensin clone pps.pk0010.g2, expressed in E. coli, refolded and purified (QRLCERASLTWSGNCGNTAHCDNQCRSWEHAQHGACHVRGGKHMCFCYFNC)”, for which the results for the IC90 (in assay [1]; in the assay with Fusarium verticilloides; in the assay with Neurospora crassa) were 2500 nM, 600 nM and 50 nM, respectively. The “inhibition of fungal growth” value in the assay with Sclerotinia sclerotiorum (2.5 μM - 0.005 μM) is recorded as 2.5 μM - 0.005 μM no inhibition of fungal growth; in the assay on Sclerotinia sclerotiorum (5 μM), 5 μM - moderate inhibiton of fungal growth; in the assay with Sclerotinia sclerotiorum (10 μM) it was 10 μM - total inhibition of fungal growth.
